According to PubChem BioAssay (NCI):
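Growth conditions: 96-well plates. Treatment: test compound, 48 hours, 5 concentrations. Analysis: linear interpolation between bracketing concentrations; unreached endpoints set to highest concentration. GI50 marks 50% less growth. TGI marks complete inhibition of growth.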

Legend:
Assay in all cases: NCI anticancer screen, dose series, 48 h
[1] = tested on: 786-0 renal
[2] = tested on: A549 NSCLC
[3] = tested on: ACHN renal
[4] = tested on: BT-549 breast
[5] = tested on: CAKI-1 renal
[6] = tested on: CCRF-CEM leukemia
[7] = tested on: COLO 205 colon
[8] = tested on: DU-145 prostate
[9] = tested on: EKVX NSCLC
[10] = tested on: HCC-2998 colon
[11] = tested on: HCT-116 colon
[12] = tested on: HCT-15 colon
[13] = tested on: HL-60(TB) leukemia
[14] = tested on: HOP-62 NSCLC
[15] = tested on: HOP-92 NSCLC
[16] = tested on: HS 578T breast
[17] = tested on: HT29 colon
[18] = tested on: IGROV1 ovarian
[19] = tested on: K-562 leukemia
[20] = tested on: KM12 colon
[21] = tested on: LOX IMVI melanoma
[22] = tested on: M14 melanoma
[23] = tested on: MCF7 breast
[24] = tested on: MDA-MB-231 breast
[25] = tested on: MDA-MB-435
[26] = tested on: MOLT-4 leukemia
[27] = tested on: NCI-H226 lung
[28] = tested on: NCI-H23 lung
[29] = tested on: NCI-H460 lung
[30] = tested on: NCI-H522 lung
[31] = tested on: NCI/ADR-RES ovarian
[32] = tested on: OVCAR-3 ovarian
[33] = tested on: OVCAR-4 ovarian
[34] = tested on: OVCAR-5 ovarian
[35] = tested on: OVCAR-8 ovarian
[36] = tested on: PC-3 prostate
[37] = tested on: RPMI-8226 leukemia
[38] = tested on: RXF 393 renal
[39] = tested on: SF-268 CNS
[40] = tested on: SF-295 CNS
[41] = tested on: SF-539 CNS
[42] = tested on: SK-MEL-2 melanoma
[43] = tested on: SK-MEL-28 melanoma
[44] = tested on: SK-MEL-5 melanoma
[45] = tested on: SK-OV-3 ovarian
[46] = tested on: SN12C renal
[47] = tested on: SNB-19 CNS
[48] = tested on: SNB-75 CNS
[49] = tested on: SR leukemia
[50] = tested on: SW-620 colon
[51] = tested on: T-47D breast
[52] = tested on: TK-10 renal
[53] = tested on: U251 CNS
[54] = tested on: UACC-257 melanoma
[55] = tested on: UACC-62 melanoma
[56] = tested on: UO-31 renal

In the case of `O=C(Nc1ccc(-c2ccccc2)cc1)C1CCN(S(=O)(=O)c2ccccc2Cl)CC1`, the GI50 [1] is reported as 23.6 µM, the TGI [1] is reported as 77.9 µM and the GI50 [2] is reported as 29.5 µM. The TGI [2] was greater than 100 µM, the GI50 [3] was 21.9 µM and the TGI [3] was 57 µM. It also gave a GI50 [4] of 13.9 µM, a TGI [4] of 56.3 µM and a GI50 [5] of 53 µM. For the same compound, the TGI [5] was greater than 100 µM, the GI50 [6] was 74.2 µM and the TGI [6] was greater than 100 µM. For the same compound, the GI50 [7] was greater than 100 µM, the TGI [7] was greater than 100 µM and the GI50 [8] was 27.9 µM. It also gave a TGI [8] greater than 100 µM, a GI50 [9] of 73.5 µM and a TGI [9] greater than 100 µM. The GI50 [10] was 59.2 µM, the TGI [10] was greater than 100 µM and the GI50 [11] was 39.4 µM. It also gave a TGI [11] greater than 100 µM, a GI50 [12] of 77.4 µM and a TGI [12] greater than 100 µM. It also gave a GI50 [13] greater than 100 µM, a TGI [13] greater than 100 µM and a GI50 [14] of 18.8 µM. It also gave a TGI [14] of 40.9 µM, a GI50 [15] of 32.2 µM and a TGI [15] of 91.2 µM. For the same compound, the GI50 [16] was 12.6 µM, the TGI [16] was 71.4 µM and the GI50 [17] was greater than 100 µM. It also gave a TGI [17] greater than 100 µM, a GI50 [18] of 21.4 µM and a TGI [18] greater than 100 µM. For the same compound, the GI50 [19] was 71.8 µM, the TGI [19] was greater than 100 µM and the GI50 [20] was 36.7 µM. For the same compound, the TGI [20] was greater than 100 µM, the GI50 [21] was 27.7 µM and the TGI [21] was greater than 100 µM. For the same compound, the GI50 [22] was 64.1 µM, the TGI [22] was greater than 100 µM and the GI50 [23] was 41.2 µM. For the same compound, the TGI [23] was greater than 100 µM, the GI50 [24] was 18.2 µM and the TGI [24] was 47.3 µM. It also gave a GI50 [25] greater than 100 µM, a TGI [25] greater than 100 µM and a GI50 [26] greater than 100 µM. For the same compound, the TGI [26] was greater than 100 µM, the GI50 [27] was 30.2 µM and the TGI [27] was greater than 100 µM. The GI50 [28] was 76.2 µM, the TGI [28] was greater than 100 µM and the GI50 [29] was 40.8 µM. It also gave a TGI [29] greater than 100 µM, a GI50 [30] of 22.4 µM and a TGI [30] greater than 100 µM. For the same compound, the GI50 [31] was 37.1 µM, the TGI [31] was greater than 100 µM and the GI50 [32] was 41.9 µM. It also gave a TGI [32] greater than 100 µM, a GI50 [33] of 22.3 µM and a TGI [33] greater than 100 µM. It also gave a GI50 [34] of 50 µM, a TGI [34] greater than 100 µM and a GI50 [35] of 22.7 µM. For the same compound, the TGI [35] was 57.1 µM, the GI50 [36] was 38 µM and the TGI [36] was greater than 100 µM. The GI50 [37] was 42 µM, the TGI [37] was greater than 100 µM and the GI50 [38] was 2.09 µM. For the same compound, the TGI [38] was 5 µM, the GI50 [39] was 39 µM and the TGI [39] was greater than 100 µM. It also gave a GI50 [40] of 24.4 µM, a TGI [40] greater than 100 µM and a GI50 [41] of 12 µM. It also gave a TGI [41] of 37.3 µM, a GI50 [42] of 49.7 µM and a TGI [42] greater than 100 µM. For the same compound, the GI50 [43] was greater than 100 µM, the TGI [43] was greater than 100 µM and the GI50 [44] was 69.3 µM. The TGI [44] was greater than 100 µM, the GI50 [45] was 57.4 µM and the TGI [45] was greater than 100 µM. It also gave a GI50 [46] of 26.9 µM, a TGI [46] of 90.2 µM and a GI50 [47] greater than 100 µM. The TGI [47] was greater than 100 µM, the GI50 [48] was 36.5 µM and the TGI [48] was greater than 100 µM. It also gave a GI50 [49] of 36.2 µM, a TGI [49] greater than 100 µM and a GI50 [50] of 82.3 µM. The TGI [50] was greater than 100 µM, the GI50 [51] was greater than 100 µM and the TGI [51] was greater than 100 µM. The GI50 [52] was 20.6 µM, the TGI [52] was 60.3 µM and the GI50 [53] was 18.8 µM. For the same compound, the TGI [53] was 67.3 µM, the GI50 [54] was 28.1 µM and the TGI [54] was greater than 100 µM. The GI50 [55] was 39.8 µM, the TGI [55] was greater than 100 µM and the GI50 [56] was 66.2 µM. The TGI [56] was greater than 100 µM.
